These results are taken from patent US11225465B2, “Albicidin derivatives, their use and synthesis” (TECHNISCHE UNIVERSITÄT BERLIN, priority 2017, dated 2022).

In brackets after ≈: the same amount, converted by molar mass.

In general, MIC refers to the lowest concentration found to suppress growth.

Common to all, as to type: cell-based
The test system of test [1] is E. coli DSM 1116. The test is described as follows: Microdilution assay, MIC. Particulars: Escherichia coli, DSM1116, 20 h, read-out: MIC E. coli DSM1116. The protocol:
(§1) The tests were performed using the micro dilution method.
(§2) The determination of MIC values was performed according to the ninth edition of the Approved Standard M07-A9 (CLSI. Methods for Dilution Antimicrobial Susceptibility Tests for Bacteria That Grow Aerobically; Approved Standard—Ninth Edition. CLSI document M07-A9. Wayne, Pa.: Clinical and Laboratory Standards Institute; 2012.)
(§3) The test was carried out for four different bacterial strains (E. coli DSM 1116 [gram negative], B. subtilis DSM 10 [gram positive], M. luteus DSM 1790 [gram positive], S. typhimurium TA100 [gram negative]). 20 μL of cryo stock of each strain were inoculated in 20 mL of LB media (Lysogeny broth: 10 g/L peptone, 5 g/L yeast extract, 5 g/L NaCl) followed by incubation over night at 37° C., 200 rpm. The test inoculum was adjusted by the 0.5 McFarland Standard (OD625 from 0.08 to 0.1). Within 15 min of preparation, the adjusted inoculum suspension was diluted in MHBII media (BBL T M Mueller-Hinton Broth II, Becton, Dickinson and Company, N.J./USA) so that each well contained approximately 5×10^5 CFU/mL in a final volume of 100 μL. 95 μL of the inoculum were applied per well and 5 μL of the (diluted) antibiotic substance were added.
(§4) Previously the dry antibiotic compounds were dissolved in DMSO (100%) with a concentration of 2560 μg/mL and the resulting stock solutions were further diluted in DMSO (100%). 5 μL of each antibiotic dilution were applied to the microdilution tray to reach final concentrations of 64 μg/mL to 0.008 μg/mL. One row of each well plate was left as a growth control without antibiotic substances and another row of the microdilution tray was used as sterility control (only MHB II-media). The antimicrobial effect of the solvent (DMSO) was tested by adding 5 μL DMSO to several wells without antibiotics.
(§5) Purity check and cell titer control were performed according to International Standard M07-A9 on Mueller-Hinton II Agar (Mueller Hinton II Broth, 15 g/L agar-agar).
(§6) Both microdilution trays and agar plates were incubated at 37° C. for 20 h and subsequently analyzed visually.

Test [2] relates to Bacillus subtilis DSM10. The test is described as follows: Microdilution assay, MIC. Conditions: DSM10, 20 h, read-out: MIC B. subtilis DSM10. The method, then:
as §1, §2, §3, §4, §5, §6
(Dilution methods test growth across graded concentrations, often in twofold steps.)

Test [3] concerns Micrococcus luteus DSM1790. The test is described as follows: Microdilution assay, MIC. Particulars: DSM1790, 20 h, read-out: MIC M. luteus DSM1790. The protocol:
as §1, §2, §3, §4, §5, §6

Test [4] concerns S. typhimurium TA100. The test is described as follows: Microdilution assay, MIC. Conditions: Salmonella enterica, 20 h, read-out: MIC S. typhimurium TA100. The protocol: as §1, §2, §3, §4, §5, §6
Test [5] concerns Klebsiella pneumoniae PEG-10-75-61. Put plainly: MHK against further strains (Table 2). Conditions: Nr. 13 Klebsiella pneumoniae PEG-10-75-61, clinical isolate; KBE/ml 4.00E+05. The protocol: as §1, §2
Test [6] deals with Escherichia coli PEG 10-2-81. Put plainly: MHK against further strains (Table 2). Conditions: Nr. 10 Escherichia coli PEG 10-2-81, clinical isolate. The protocol:
as §1, §2

For test [7], the system named is Escherichia coli PEG 10-79-22. Put plainly: MHK against further strains (Table 2). Conditions: Nr. 11 Escherichia coli PEG 10-79-22, clinical isolate. The method, then: as §1, §2
Test [8] deals with Klebsiella oxytoca PEG-10-45-54. Put plainly: MHK against further strains (Table 2). Conditions: Nr. 16 Klebsiella oxytoca PEG-10-45-54, clinical isolate; KBE/ml 4.40E+05. The protocol:
as §1, §2

Test [9] relates to Staphylococcus aureus PEG 13-18-19. Put plainly: MHK against further strains (Table 2). Particulars: Nr. 26 Staphylococcus aureus PEG 13-18-19, clinical isolate. The protocol:
as §1, §2

In test [10] the test system is Pseudomonas aeruginosa PEG-10-2-61. Put plainly: MHK against further strains (Table 2). Particulars: Nr. 7 Pseudomonas aeruginosa PEG-10-2-61, clinical isolate. The method, then: as §1, §2
Test [11] has as its system Acinetobacter baumannii PEG 10-12-26. Put plainly: MHK against further strains (Table 2). Particulars: Nr. 22 Acinetobacter baumannii PEG 10-12-26, clinical isolate. The method, then: as §1, §2
Test [12] concerns Enterococcus faecium PEG 13-73-65. The test is described as follows: MHK against further strains (Table 2). Particulars: Nr. 30 Enterococcus faecium PEG 13-73-65, clinical isolate. The protocol:
as §1, §2

Test [13] relates to Acinetobacter baumannii PEG 10-57-31. Put plainly: MHK against further strains (Table 2). Conditions: Nr. 23 Acinetobacter baumannii PEG 10-57-31, clinical isolate; KBE/ml 2.60E+05. The method, then:
as §1, §2

The subject of test [14] is Pseudomonas aeruginosa PEG-10-44-76. Put plainly: MHK against further strains (Table 2). Conditions: Nr. 21 Pseudomonas aeruginosa PEG-10-44-76, clinical isolate. The protocol:
as §1, §2

Test [15] deals with Acinetobacter baumannii PEG 10-86-5. The test is described as follows: MHK against further strains (Table 2). Particulars: Nr. 25 Acinetobacter baumannii PEG 10-86-5, clinical isolate; KBE/ml 2.00E+05. The protocol: as §1, §2
For test [16], the system named is Enterobacter cloacae PEG-10-52-78. The test is described as follows: MHK against further strains (Table 2). Conditions: Nr. 17 Enterobacter cloacae PEG-10-52-78, clinical isolate. The method, then:
as §1, §2

For test [17], the system named is Klebsiella pneumoniae PEG-10-20-4. The test is described as follows: MHK against further strains (Table 2). Conditions: Nr. 4 Klebsiella pneumoniae PEG-10-20-4, clinical isolate. The method, then:
as §1, §2

The test system of test [18] is Enterobacter asburiae PEG-13-74-62. Put plainly: MHK against further strains (Table 2). Particulars: Nr. 19 Enterobacter asburiae PEG-13-74-62, clinical isolate; KBE/ml 8.20E+05. The protocol: as §1, §2
The test system of test [19] is Pseudomonas aeruginosa PEG-10-47-57. Put plainly: MHK against further strains (Table 2). Conditions: Nr. 20 Pseudomonas aeruginosa PEG-10-47-57, clinical isolate. The protocol:
as §1, §2

Test [20] relates to Klebsiella pneumoniae PEG-10-90-74. Put plainly: MHK against further strains (Table 2). Particulars: Nr. 5 Klebsiella pneumoniae PEG-10-90-74, clinical isolate; KBE/ml 4.00E+05. The protocol: as §1, §2
The subject of test [21] is Escherichia coli 100-2-49. The test is described as follows: MHK against further strains (Table 2). Conditions: Nr. 2 Escherichia coli 100-2-49, clinical isolate; KBE/ml 3.80E+05. The method, then: as §1, §2
Test [22] deals with Pseudomonas aeruginosa ATCC 27853. Put plainly: MHK against further strains (Table 2). Particulars: Nr. 6 Pseudomonas aeruginosa ATCC 27853; KBE/ml 5.60E+05. The method, then: as §1, §2
In test [23] the test system is Klebsiella pneumoniae 310-1-54. Put plainly: MHK against further strains (Table 2). Conditions: Nr. 14 Klebsiella pneumoniae 310-1-54, clinical isolate. The protocol: as §1, §2

Turning to `COc1c(NC(=O)c2ccc(NC(=O)c3ccc(NC(=O)[C@H](Cc4c[nH]cn4)NC(=O)c4ccc(NC(=O)/C(C)=C/c5ccc(O)cc5)cc4)cc3)c(OC)c2O)ccc(C(=O)O)c1O` [Compound 1, L-His-albicidin], the MIC in test [1] was 63 µg/mL (≈ 71.3 µM); in test [2], 500 µg/mL (≈ 566 µM); in test [3], 4000 µg/mL (≈ 4530 µM); in [4] it was 31 µg/mL (≈ 35.1 µM). Also, the MHK amounted to 32 mg/L in test [5]; 0.5 mg/L in test [6]; 0.25 mg/L in test [7]; 4 mg/L in test [8]; 8 mg/L in test [9]; 32 mg/L in test [10]. The MHK in test [11] turned out to be 16 mg/L; in test [12], 32 mg/L; in test [13] it was 32 mg/L; in [14], 4 mg/L; in test [15] it was 4 mg/L; in [16], 32 mg/L. Also, the MHK was 32 mg/L in test [17]; 32 mg/L in [18]; 8 mg/L in test [19]; 32 mg/L in test [20]; 0.5 mg/L in test [21]; 2 mg/L in test [22]. The MHK in test [23] was found to be 32 mg/L.

Turning to `COc1c(NC(=O)c2ccc(NC(=O)c3ccc(NC(=O)[C@H](CN(C)C)NC(=O)c4ccc(NC(=O)/C(C)=C/c5ccc(O)cc5)cc4)cc3)c(OC)c2O)ccc(C(=O)O)c1O` [Compound 2, L-DMDAP-Albicidin], the MIC worked out at 125 µg/mL (≈ 145 µM) in test [1], 125 µg/mL (≈ 145 µM) in [2], 2000 µg/mL (≈ 2320 µM) in [3] and 31 µg/mL (≈ 36 µM) in test [4]. Moreover, the MHK in test [5], in test [6], in test [7], in test [8], in test [9] and in test [10] was 32 mg/L throughout. In addition, the MHK in test [11], in test [12], in test [13], in [14], in test [15] and in test [16] was 32 mg/L in each case. For the same compound, the MHK in test [17], in test [18], in [19], in test [20], in test [21] and in test [22] was 32 mg/L throughout. The MHK in test [23] was determined as 32 mg/L.

In the case of `COc1c(NC(=O)c2ccc(NC(=O)c3ccc(NC(=O)C(Cc4c[nH]nn4)NC(=O)c4ccc(NC(=O)/C(C)=C/c5ccc(O)cc5)cc4)cc3)c(OC)c2O)ccc(C(=O)O)c1O` [Compound 3, L-Azahis-Albicidin], the minimum inhibitory concentration (MIC) in test [1] is at most 16 µg/mL; in test [2], 125 µg/mL (≈ 141 µM); in test [3] it was 500 µg/mL (≈ 565 µM); in test [4], at most 16 µg/mL. In addition, the MHK in [5] is 32 mg/L; in [6], 0.063 mg/L; in test [7], 0.063 mg/L; in test [8] it was 0.5 mg/L; in test [9] it was 0.5 mg/L; in test [10], 8 mg/L. The MHK came to 16 mg/L in test [11]; 8 mg/L in test [12]; 32 mg/L in test [13]; 0.5 mg/L in test [14]; 4 mg/L in test [15]; 32 mg/L in test [16]. For the same compound, the MHK in test [17] amounted to 32 mg/L; in [18], 32 mg/L; in test [19], 4 mg/L; in test [20], 32 mg/L; in test [21] it was 0.063 mg/L; in test [22], 1 mg/L. In test [23], this compound showed an MHK of 32 mg/L.

Consider `COc1c(NC(=O)c2ccc(NC(=O)c3ccc(NC(=O)[C@@H](CN(C)C)NC(=O)c4ccc(NC(=O)/C(C)=C/c5ccc(O)cc5)cc4)cc3)c(OC)c2O)ccc(C(=O)O)c1O` [Compound 16, D-DMDAP-Albicidin], for which the minimum inhibitory concentration (MIC) in test [1] was 500 µg/mL (≈ 581 µM); in [2], 1000 µg/mL (≈ 1160 µM); in [3], at least 8000 µg/mL; in test [4], 250 µg/mL (≈ 290 µM). The MHK in [5], in test [6], in test [7], in [8], in test [9] and in [10] was 32 mg/L each time. In addition, the MHK in test [11], in [12], in test [13], in [14], in test [15] and in [16] was 32 mg/L in each case. For the same compound, the MHK in test [17], in test [18], in test [19], in [20], in test [21] and in test [22] was 32 mg/L in each case. Besides, the MHK in test [23] was determined as 32 mg/L.
